Data reported in ChEMBL document CHEMBL4725246, “Design, synthesis, and evaluation of a novel macrocyclic anti-EV71 agent” (Bioorg Med Chem, 2020).

Columns and labels:
Enterovirus A71 [1] = assay: Antiviral activity against Enterovirus A71 SK-EV006 measured after 3 to 4 days by cell based assay; assay type: functional, organism-based; conditions: Enterovirus A
[2] = Stability in CD-1 mouse plasma assessed as parent compound remaining upto 120 mins by LC-MS analysis; assay type: ADME, cell-free; conditions: read-out: Stabilty
Enterovirus A71 [3] = assay: Antiviral activity against Enterovirus A71 Shenzhen/120F1/09 infected in human RD cells assessed as […] measured after 72 hrs post-infection by CCK-8 assay; assay type: functional, organism-based; conditions: Enterovirus A, Shenzhen/120F1/09, RD

Row | SMILES | EC50 (Enterovirus A71 [1]) [nM] | remaining at 2 h [2] [%] | EC50 (Enterovirus A71 [3]) [nM]
1 | Cc1cc(C(=O)N[C@@H](Cc2ccc(F)cc2)C(=O)N[C@H](C=O)C[C@@H]2CCCNC2=O)no1 | 108 | – | –
2 | Cc1cc(C(=O)N[C@H](C(=O)NC2C(=O)N[C@@H](CC3CCNC3=O)/C=C/C(=O)OC/C=C/CCOC2c2ccccc2)C(C)C)no1 (stereo partly drawn) | – | 5.6 | 4500
